# In patent publication US20240239759A1, “ISOXAZOLINE COMPOSITIONS AND THEIR USE AS ANTIPARASITICS” (Intervet Inc., priority 2007, published 2024):
# Where “and” joins values, the source holds several entries; their conditions need not be identical. Identical values can stand only once.
# Key:
# [1] = Side effects in mice, flea study (Example 2A); type: in vivo; details: topical 100 ppm, oral or subcutaneous 10 mg/kg
# Method: (§1) Mice were divided into groups of three, and treated topically with 100 ppm body weight, orally with 10 mg/kg bodyweight, or subcutaneously with 10 mg/kg bodyweight of Compound 11-1, fipronil (positive control), or nothing (negative control). These mice were sedated and infested with adult fleas (C. felis) 1, 3, 6, and 24 hr after treatment. Fleas were recovered from the mice after approximately 30 minutes of feeding. The assessment of flea inhibition (% of dead and damaged fleas) was conducted 1 and 24 hr after each infestation.
# [2] = system: juvenile soft ticks (O. moubata); assay: Efficacy against soft (Argaside) ticks on Guinea pigs (Example 2C); type: in vivo, Ornithodoros moubata; details: Guinea pig
# Method: (§2) Six Guinea pigs were treated orally, subcutaneously, or intraperitoneally with 10 mg/kg bodyweight of Compound 11-1 or fipronil (positive control). The Guinea pigs were locally co-infested with juvenile soft ticks (O. moubata) and bed bugs (C. lectularius) once before the treatment, and at different time points after treatment between days 2 and 50. Ten engorged ticks/bed bugs were collected to assess the percentage of killed individuals per species 24 hr after each infestation.
# (§3) For Guinea pigs treated with Compound 11-1, the ticks and bed bugs died within 1 to 5 hr following infestation up to Day 29, and within 8 to 24 hr after day 29. For Guinea pigs treated with fipronil, ticks and bed bugs died within 1 to 7 hr after infestation up to Day 29, and within 8 to 24 hr after day 29.
# [3] = Side effects in Guinea pigs, soft tick and bed bug study (Example 2C); type: in vivo
# Method: as §2
# [4] = system: M. musculinus; assay: Efficacy against mites on mice (Example 2B); type: in vivo, Myocoptes musculinus; design: key: “+”=low infestation rate; “++”=medium infestation rate; “+++”=high infestation rate; details: repeated 7 days later
# Method: The mice were divided into groups of three, and treated topically with 100 ppm body weight, orally with 10 mg/kg body weight, or subcutaneously with 10 mg/kg body weight of Compound 11-1, fipronil (positive control), or nothing (negative control). This treatment was then repeated 7 days later. The infestation rate per mouse (“+”=low infestation rate, “++”=medium infestation rate, “+++”=high infestation rate) was assessed repeatedly on days 1, 6, 9, 13, and 23. Efficacy was defined as the inhibition of the mite infestation rate on treated mice relative to the negative control group.
# [5] = system: cat fleas (Ctenocephalides felis); assay: Adult fleas fed on artificial membranes with spiked blood (Example 1); details: 48 hr continuous feeding
# Method: Adult fleas (20-30) were fed on artificial membranes with blood spiked with Compound 10-1, Compound 11-1, or a positive control (fipronil) at a concentration of 100, 10, or 1 ppm. Flea efficacy was assessed after 48 hr of continuous feeding by comparing the number of killed and damaged fleas with the number of fed fleas. Flea efficacy was 100% for Compound 10-1, Compound 11-1, and fipronil at 100, 10, and 1 ppm.
# [6] = system: brown dog ticks, R. sanguineus (nymphs); assay: Efficacy against hard (Ixodide) ticks on Guinea pigs (Example 2D); type: in vivo, Rhipicephalus sanguineus; details: all treated groups of Study 1 (100 ppm dip, 10 mg/kg oral, 10 mg/kg subcutaneous) and Study 2 (25 ppm dip, 2.5 mg/kg oral, 2.5 mg/kg subcutaneous), Day 4 to Day 8
# Method: (§4) Guinea pigs were divided into groups of three. Each group was subjected to one of the following treatments with either Compound 11-1, fipronil (positive control), or neither (negative control):
# (§5) • 1. 100 ppm body weight topical administration by animal dip • 2. 10 mg/kg body weight oral administration • 3. 10 mg/kg body weight subcutaneous administration • 4. No treatment (negative control)
# (§6) • 1. 25 ppm body weight topical administration by animal dip • 2. 2.5 mg/kg body weight oral administration • 3. 2.5 mg/kg body weight subcutaneous administration • 4. No treatment (negative control) One day before the treatment, all the Guinea pigs were infested with 100 vital juvenile (“nymph”) hard ticks (brown dog ticks, R. sanguineus). Engorged, detached nymphs were counted (eN) from Day 4 to Day 8 to calculate the efficacy of the treatments according to following formula: […]
# In addition, collected ticks were assessed for molting into the next stage.
# [7] = system: adult fleas (C. felis); assay: Efficacy against fleas on mice (Example 2A); type: in vivo, Ctenocephalides felis
# Method: as §1
# [8] = Side effects in Guinea pigs, hard tick studies (Example 2D); type: in vivo; details: Guinea pigs; either study (topical dip, oral, subcutaneous)
# Method: as §4, §5, §6
# In the first study, 32 engorged R. sanguineus nymphs were collected from animals of the untreated negative control group. And in the second study, 75 engorged R. sanguineus nymphs were collected from animals of the untreated negative control group. […] Thus, the inhibition of engorged nymphs for both Compound 11-1 and fipronil was 100%.
# [9] = system: bed bugs (C. lectularius); assay: Efficacy against bed bugs on Guinea pigs (Example 2C); type: in vivo, Cimex lectularius; details: Guinea pig
# Method: as §2, §3
smiles,measurement,setting,value
"Cc1cc(C2=NOC(c3cc(Cl)cc(Cl)c3)(C(F)(F)F)C2)ccc1C(=O)NCC(=O)NCC(F)(F)F (racemic) [Compound 11-1, 4-[5-(3,5-dichlorophenyl)-5-trifluoromethyl-4,5-dihydroisoxazol-3-yl]-2-methyl-N-[(2,2,2-trifluoro-ethylcarbamoyl)-methyl]-benzamide]",Side effects,[1],No side effects were observed
same,Efficacy against soft ticks (killed 24 hr after infestation),"[2]; intraperitoneal 10 mg/kg, after Day 31",No efficacy was detected after Day 31.
same,Efficacy against soft ticks (killed 24 hr after infestation),"[2]; intraperitoneal 10 mg/kg, up to Day 31",100% efficacy was observed up to Day 31.
same,Efficacy against soft ticks (killed 24 hr after infestation),"[2]; oral 10 mg/kg, up to Day 31",100% efficacy was observed up to Day 31.
same,Efficacy against soft ticks (killed 24 hr after infestation),"[2]; subcutaneous 10 mg/kg, after Day 33",No efficacy was detected after Day 33.
same,Efficacy against soft ticks (killed 24 hr after infestation),"[2]; subcutaneous 10 mg/kg, up to Day 31",100% efficacy was observed up to Day 31.
same,Efficacy against soft ticks (killed 24 hr after infestation),"[2]; subcutaneous 10 mg/kg, up to Day 33",70% efficacy was observed up to Day 33.
same,Death of the orally treated Guinea pig (Animal No. 1) after Day 31,"[3]; Guinea pig, oral 10 mg/kg, without clinical symptoms",not considered to be treatment-related
same,Side effects,"[3]; Guinea pigs, oral, subcutaneous or intraperitoneal 10 mg/kg",No side effects were observed
same,Mite infestation rate per mouse,"[4]; oral 10 mg/kg, Day 1",+ to ++
same,Mite infestation rate per mouse,"[4]; oral 10 mg/kg, Day 6",++
same,Mite infestation rate per mouse,"[4]; oral 10 mg/kg, Day 9, 10 mg/kg",2 mice: none and 1 mouse: +
same,Mite infestation rate per mouse,"[4]; oral 10 mg/kg, Day 13",none
same,Mite infestation rate per mouse,"[4]; oral 10 mg/kg, Day 23",none
same,Mite infestation rate per mouse,"[4]; subcutaneous 10 mg/kg, Day 1",+ to ++
same,Mite infestation rate per mouse,"[4]; subcutaneous 10 mg/kg, Day 6",++
same,Mite infestation rate per mouse,"[4]; subcutaneous 10 mg/kg, Day 9",none
same,Mite infestation rate per mouse,"[4]; subcutaneous 10 mg/kg, Day 13",none
same,Mite infestation rate per mouse,"[4]; subcutaneous 10 mg/kg, Day 23",none
same,Mite infestation rate per mouse,"[4]; topical 100 ppm body weight, Day 1",+
same,Mite infestation rate per mouse,"[4]; topical 100 ppm body weight, Day 6",2 mice: none and 1 mouse: +
same,Mite infestation rate per mouse,"[4]; topical 100 ppm body weight, Day 9",none
same,Mite infestation rate per mouse,"[4]; topical 100 ppm body weight, Day 13",none
same,Mite infestation rate per mouse,"[4]; topical 100 ppm body weight, Day 23",none
same,Flea efficacy,[5]; blood spiked at 1 ppm,100%
same,Flea efficacy,[5]; blood spiked at 10 ppm,100%
same,Flea efficacy,[5]; blood spiked at 100 ppm,100%
same,Engorged R. sanguineus nymphs collected,[6],no nymphs were collected
same,Inhibition of engorged nymphs,[6],100%
same,Flea inhibition (% of dead and damaged fleas),"[7]; oral 10 mg/kg, infested 1 hr after treatment, assessed 1 hr after infestation",43.3%
same,Flea inhibition (% of dead and damaged fleas),"[7]; oral 10 mg/kg, infested 1 hr after treatment, assessed 24 hr after infestation",67.7%
same,Flea inhibition (% of dead and damaged fleas),"[7]; oral 10 mg/kg, infested 3 hr after treatment, assessed 1 hr after infestation",44.3%
same,Flea inhibition (% of dead and damaged fleas),"[7]; oral 10 mg/kg, infested 3 hr after treatment, assessed 24 hr after infestation",48.7%
same,Flea inhibition (% of dead and damaged fleas),"[7]; oral 10 mg/kg, infested 6 hr after treatment, assessed 1 hr after infestation",17.7%
same,Flea inhibition (% of dead and damaged fleas),"[7]; oral 10 mg/kg, infested 6 hr after treatment, assessed 24 hr after infestation",26.7%
same,Flea inhibition (% of dead and damaged fleas),"[7]; oral 10 mg/kg, infested 24 hr after treatment, assessed 1 hr after infestation",37.7%
same,Flea inhibition (% of dead and damaged fleas),"[7]; oral 10 mg/kg, infested 24 hr after treatment, assessed 24 hr after infestation",82.0%
same,Flea inhibition (% of dead and damaged fleas),"[7]; subcutaneous 10 mg/kg, infested 1 hr after treatment, assessed 1 hr after infestation",7.7%
same,Flea inhibition (% of dead and damaged fleas),"[7]; subcutaneous 10 mg/kg, infested 1 hr after treatment, assessed 24 hr after infestation",40.0%
same,Flea inhibition (% of dead and damaged fleas),"[7]; subcutaneous 10 mg/kg, infested 3 hr after treatment, assessed 1 hr after infestation",31.0%
same,Flea inhibition (% of dead and damaged fleas),"[7]; subcutaneous 10 mg/kg, infested 3 hr after treatment, assessed 24 hr after infestation",42.3%
same,Flea inhibition (% of dead and damaged fleas),"[7]; subcutaneous 10 mg/kg, infested 6 hr after treatment, assessed 1 hr after infestation",21.0%
same,Flea inhibition (% of dead and damaged fleas),"[7]; subcutaneous 10 mg/kg, infested 6 hr after treatment, assessed 24 hr after infestation",36.7%
same,Flea inhibition (% of dead and damaged fleas),"[7]; subcutaneous 10 mg/kg, infested 24 hr after treatment, assessed 1 hr after infestation",100%
same,Flea inhibition (% of dead and damaged fleas),"[7]; subcutaneous 10 mg/kg, infested 24 hr after treatment, assessed 24 hr after infestation",100%
same,Flea inhibition (% of dead and damaged fleas),"[7]; topical 100 ppm body weight, infested 1 hr after treatment, assessed 1 hr after infestation",0%
same,Flea inhibition (% of dead and damaged fleas),"[7]; topical 100 ppm body weight, infested 1 hr after treatment, assessed 24 hr after infestation",97.7%
same,Flea inhibition (% of dead and damaged fleas),"[7]; topical 100 ppm body weight, infested 3 hr after treatment, assessed 1 hr after infestation",0%
same,Flea inhibition (% of dead and damaged fleas),"[7]; topical 100 ppm body weight, infested 3 hr after treatment, assessed 24 hr after infestation",99.0%
same,Flea inhibition (% of dead and damaged fleas),"[7]; topical 100 ppm body weight, infested 6 hr after treatment, assessed 1 hr after infestation",0%
same,Flea inhibition (% of dead and damaged fleas),"[7]; topical 100 ppm body weight, infested 6 hr after treatment, assessed 24 hr after infestation",81.0%
same,Flea inhibition (% of dead and damaged fleas),"[7]; topical 100 ppm body weight, infested 24 hr after treatment, assessed 1 hr after infestation",2%
same,Flea inhibition (% of dead and damaged fleas),"[7]; topical 100 ppm body weight, infested 24 hr after treatment, assessed 24 hr after infestation",93.3%
same,Side effects,[8],No side effects were observed
same,Efficacy against bed bugs (killed 24 hr after infestation),"[9]; intraperitoneal 10 mg/kg, after Day 35",35. No efficacy was detected after Day 35.
same,Efficacy against bed bugs (killed 24 hr after infestation),"[9]; intraperitoneal 10 mg/kg, up to Day 33",100% efficacy was observed up to Day 33.
same,Efficacy against bed bugs (killed 24 hr after infestation),"[9]; oral 10 mg/kg, up to Day 31",100% efficacy was observed up to Day 31.
same,Efficacy against bed bugs (killed 24 hr after infestation),"[9]; subcutaneous 10 mg/kg, after Day 42",42. No efficacy was detected after Day 42.
same,Efficacy against bed bugs (killed 24 hr after infestation),"[9]; subcutaneous 10 mg/kg, up to Day 35",100% efficacy was observed up to Day 35.
same,Efficacy against bed bugs (killed 24 hr after infestation),"[9]; subcutaneous 10 mg/kg, up to Day 40",90% efficacy was observed up to Day 40.
